Laboratory results: PMC9967956, “Efficacy of Trichoderma longibrachiatum Trichogin GA IV Peptaibol analogs against the Black Rot Pathogen Xanthomonas campestris pv. campestris and other Phytopathogenic Bacteria” (Microorganisms, 2023)
In brackets after ≈: the same amount, converted by molar mass. Where a SMILES comes first, the peptide text is derived from it. [ ]: non-standard residue; d: D form. The star is where a group is joined. Azidoacetyl = [N-]=[N+]=NCC(=O)*; Leu(ol) = CC(C)C[C@H](N)CO; Octanoyl = CCCCCCCC(=O)*; nOct = not defined here; Aib = CC(C)(N)C(=O)O

Key:
[1] = system: Xanthomonas campestris pv. campestris; test: MIC and MBC determinations against Xcc; assay type: cell-based; parameters: key to Bacteriostatic (MIC) / bactericidal (MBC) activity at 0.5 µM / Bacteriostatic (MIC) / bactericidal (MBC) activity at 1 µM / Bacteriostatic (MIC) / bactericidal (MBC) activity at 3 µM / Bacteriostatic (MIC) / bactericidal (MBC) activity at 2 µM: Dashes (-) indicate the absence of bacteriostatic or bactericidal activity; Minimal Inhibitory Concentration (MIC); Minimal Bactericidal Concentration (MBC); MIC and MBC: Minimal Inhibitory Concentration (MIC) and Minimal Bactericidal Concentration (MBC); conditions: for MIC: lowest concentration that completely inhibited visible growth, 72 h, tested 3, 2, 1 and 0.5 µM; for Bacteriostatic (MIC) / bactericidal (MBC) activity at 0.5 µM: peptide 0.5 µM; for Bacteriostatic (MIC) / bactericidal (MBC) activity at 0.5 µM / Bacteriostatic (MIC) / bactericidal (MBC) activity at 1 µM / Bacteriostatic (MIC) / bactericidal (MBC) activity at 2 µM / Bacteriostatic (MIC) / bactericidal (MBC) activity at 3 µM: 72 h growth inhibition, then plating on LBA 24 h; for Bacteriostatic (MIC) / bactericidal (MBC) activity at 1 µM: peptide 1 µM; for Bacteriostatic (MIC) / bactericidal (MBC) activity at 2 µM: peptide 2 µM; for Bacteriostatic (MIC) / bactericidal (MBC) activity at 3 µM: peptide 3 µM
Method: Peptaibols were tested at decreasing concentrations (3, 2, 1 and 0.5 µM). Minimal Bactericidal Concentration (MBC) was determined at the end of the incubation period (72 h) by plating, onto LBA plates, 5 µL samples that were collected from each well with no visible growth.

[2] = system: Xanthomonas campestris pv. campestris strain RC1; test: Growth inhibition assay against Xcc (OD600); conditions: LB, 27 °C, 72 h, OD 600 nm, three replicates, two independent experiments
P. oryzae = conditions: cited from earlier work

Compound: CCCCCCCC(=O)NC(C)(C)C(=O)N[C@@H](CCCCN)C(=O)N[C@@H](CC(C)C)C(=O)NC(C)(C)C(=O)NCC(=O)NCC(=O)N[C@@H](CC(C)C)C(=O)NC(C)(C)C(=O)NCC(=O)N[C@H](C(=O)N[C@H](CO)CC(C)C)[C@@H](C)CC [Peptide 2] (Octanoyl-[Aib]KL[Aib]GGL[Aib]GI[Leu(ol)])
- MIC [1]: 3 µM (≈ 3.41 µg/mL)
- Bacteriostatic (MIC) / bactericidal (MBC) activity at 0.5 µM [1]: -
- Bacteriostatic (MIC) / bactericidal (MBC) activity at 1 µM [1]: -
- Bacteriostatic (MIC) / bactericidal (MBC) activity at 2 µM [1]: -
- Bacteriostatic (MIC) / bactericidal (MBC) activity at 3 µM [1]: MIC
- Inhibition of Xcc growth in vitro ([2]; peptide 3 µM): complete inhibition
- Inhibition of Xcc growth in vitro ([2]; peptide 15 µM): completely inhibit

Compound: CCCCCCCC(=O)NC(C)(C)C(=O)N[C@@H](CCCCN)C(=O)N[C@@H](CCCCN)C(=O)N[C@@H](CC(C)C)C(=O)NC(C)(C)C(=O)NCC(=O)N[C@H](C(=O)N[C@H](CO)CC(C)C)[C@@H](C)CC [Peptide 4c] (Octanoyl-[Aib]KKL[Aib]GI[Leu(ol)])
- MIC [1]: 3 µM (≈ 2.86 µg/mL)
- Bacteriostatic (MIC) / bactericidal (MBC) activity at 0.5 µM [1]: -
- Bacteriostatic (MIC) / bactericidal (MBC) activity at 1 µM [1]: -
- Bacteriostatic (MIC) / bactericidal (MBC) activity at 2 µM [1]: -
- Bacteriostatic (MIC) / bactericidal (MBC) activity at 3 µM [1]: MIC
- Inhibition of Xcc growth in vitro ([2]; peptide 3 µM): confirmed the Xcc growth inhibition detected at 15 µM
- Inhibition of Xcc growth in vitro ([2]; peptide 15 µM): completely inhibited

Compound: CCCCCCCC(=O)NC(C)(C)C(=O)N[C@@H](CCCCN)C(=O)N[C@@H](CC(C)C)C(=O)NC(C)(C)C(=O)N[C@@H](CCCCN)C(=O)NCC(=O)N[C@@H](CC(C)C)C(=O)NC(C)(C)C(=O)N[C@@H](CCCCN)C(=O)N[C@H](C(=O)N[C@@H](CC(C)C)C(N)=O)[C@@H](C)CC [Peptide 5r] (Octanoyl-[Aib]KL[Aib]KGL[Aib]KIL-NH2)
- MIC [1]: 2 µM (≈ 2.59 µg/mL)
- Bacteriostatic (MIC) / bactericidal (MBC) activity at 0.5 µM [1]: -
- Bacteriostatic (MIC) / bactericidal (MBC) activity at 1 µM [1]: -
- Inhibition of Xcc growth in vitro ([2]; peptide 3 µM): confirmed the Xcc growth inhibition detected at 15 µM
- Inhibition of Xcc growth in vitro ([2]; peptide 15 µM): complete inhibition

Compound: CC[C@H](C)[C@H](NC(=O)[C@H](CCCCN)NC(=O)C(C)(C)NC(=O)[C@H](CC(C)C)NC(=O)[C@H](CCCCN)NC(=O)[C@H](CCCCN)NC(=O)C(C)(C)NC(=O)[C@H](CC(C)C)NC(=O)[C@H](CCCCN)NC(=O)C(C)(C)NC(=O)CN=[N+]=[N-])C(=O)N[C@H](CO)CC(C)C [Peptide 9] (Azidoacetyl-[Aib]KL[Aib]KKL[Aib]KI[Leu(ol)])
- MIC [1]: 1 µM (≈ 1.31 µg/mL)
- Bacteriostatic (MIC) / bactericidal (MBC) activity at 0.5 µM [1]: -
- Bacteriostatic (MIC) / bactericidal (MBC) activity at 1 µM [1]: MIC
- Inhibition of Xcc growth in vitro ([2]; peptide 3 µM): complete inhibition

Compound: CCCCCCCC(=O)NC(C)(C)C(=O)N[C@@H](CCCCN)C(=O)N[C@@H](CC(C)C)C(=O)NC(C)(C)C(=O)N[C@@H](CCCCN)C(=O)N[C@@H](CCCCN)C(=O)N[C@@H](CC(C)C)C(=O)NC(C)(C)C(=O)N[C@@H](CCCCN)C(=O)N[C@H](C(=O)N[C@@H](CC(C)C)C(=O)NC(C)(C)C(=O)N[C@@H](CCCCN)C(=O)N[C@@H](CC(C)C)C(=O)NC(C)(C)C(=O)N[C@@H](CCCCN)C(=O)N[C@@H](CCCCN)C(=O)N[C@@H](CC(C)C)C(=O)NC(C)(C)C(=O)N[C@@H](CCCCN)C(=O)N[C@H](C(=O)N[C@H](CO)CC(C)C)[C@@H](C)CC)[C@@H](C)CC [Peptide 10] (Octanoyl-[Aib]KL[Aib]KKL[Aib]KIL[Aib]KL[Aib]KKL[Aib]KI[Leu(ol)])
- MIC [1]: 2 µM (≈ 5.14 µg/mL)
- Bacteriostatic (MIC) / bactericidal (MBC) activity at 0.5 µM [1]: -
- Bacteriostatic (MIC) / bactericidal (MBC) activity at 1 µM [1]: -
- Inhibition of Xcc growth in vitro ([2]; peptide 3 µM): complete inhibition

Compound: CCCCCCCC(=O)NC(C)(C)C(=O)NCC(=O)N[C@@H](CC(C)C)C(=O)NC(C)(C)C(=O)NCC(=O)N[C@@H](CCCCN)C(=O)N[C@@H](CC(C)C)C(=O)NC(C)(C)C(=O)NCC(=O)N[C@H](C(=O)N[C@H](CO)CC(C)C)[C@@H](C)CC [Peptide 22]
- MIC [1]: 2 µM (≈ 2.28 µg/mL)
- Bacteriostatic (MIC) / bactericidal (MBC) activity at 0.5 µM [1]: -
- Bacteriostatic (MIC) / bactericidal (MBC) activity at 1 µM [1]: -
- Bacteriostatic (MIC) / bactericidal (MBC) activity at 3 µM [1]: -
- Inhibition of Xcc growth in vitro ([2]; peptide 3 µM): complete inhibition

Compound: CCCCCCCC(=O)NC(C)(C)C(=O)N[C@@H](CCCCN)C(=O)N[C@@H](CC(C)C)C(=O)NC(C)(C)C(=O)N[C@@H](CCCCN)C(=O)N[C@@H](CCCCN)C(=O)N[C@@H](CC(C)C)C(=O)NC(C)(C)C(=O)N[C@@H](CCCCN)C(=O)N[C@H](C(=O)N[C@H](CO)CC(C)C)[C@@H](C)CC [Peptide 23] (Octanoyl-[Aib]KL[Aib]KKL[Aib]KI[Leu(ol)])
- MIC [1]: 1 µM (≈ 1.35 µg/mL)
- Bacteriostatic (MIC) / bactericidal (MBC) activity at 0.5 µM [1]: -
- Inhibition of Xcc growth in vitro ([2]; peptide 3 µM): complete inhibition

Compound: CCCCCCCC(=O)NC(C)(C)C(=O)N[C@@H](CCCCN)C(=O)N[C@@H](CC(C)C)C(=O)NC(C)(C)C(=O)N[C@@H](CCCCN)C(=O)N[C@@H](CCCCN)C(=O)N[C@@H](CC(C)C)C(=O)NC(C)(C)C(=O)NCC(=O)N[C@H](C(=O)N[C@H](CO)CC(C)C)[C@@H](C)CC [Peptide 24] (Octanoyl-[Aib]KL[Aib]KKL[Aib]GI[Leu(ol)])
- MIC [1]: 1 µM (≈ 1.28 µg/mL)
- Bacteriostatic (MIC) / bactericidal (MBC) activity at 0.5 µM [1]: -
- Bacteriostatic (MIC) / bactericidal (MBC) activity at 1 µM [1]: MIC
- Inhibition of Xcc growth in vitro ([2]; peptide 3 µM): complete inhibition

Compound: CCCCCCCC(=O)NC(C)(C)C(=O)N[C@@H](CCCCN)C(=O)N[C@@H](CC(C)C)C(=O)NC(C)(C)C(=O)N[C@@H](CCCCN)C(=O)N[C@@H](CCCCN)C(=O)N[C@@H](CC(C)C)C(=O)NC(C)(C)C(=O)NCC(=O)N[C@H](C(=O)N[C@@H](CC(C)C)C(N)=O)[C@@H](C)CC [Peptide 24r] (Octanoyl-[Aib]KL[Aib]KKL[Aib]GIL-NH2)
- MIC [1]: 1 µM (≈ 1.29 µg/mL)
- Bacteriostatic (MIC) / bactericidal (MBC) activity at 0.5 µM [1]: -
- Bacteriostatic (MIC) / bactericidal (MBC) activity at 1 µM [1]: MIC
- Inhibition of Xcc growth in vitro ([2]; peptide 3 µM): confirmed the Xcc growth inhibition detected at 15 µM
- Inhibition of Xcc growth in vitro ([2]; peptide 15 µM): complete inhibition

Compound: nOct-Aib-Gly-Leu-Aib-Gly-Gly-Leu-Aib-Gly-Ile-Lol [Trichogin GA IV, trichogin GA IV]
- Inhibition of Xcc growth in vitro ([2]; peptide 15 µM): inactive

Compound: nOct-Aib-Gly-Leu-Aib-Gly-Gly-Leu-Aib-Lys-Ile-Lol [Peptide 25]
- Inhibition of Xcc growth in vitro ([2]; peptide 3 µM): did not reduce

Compound: nOct-Aib-Gly-Leu-Aib-Gly-Gly-Leu-Api-Gly-Ile-Lol [Peptide 8]
- Inhibition of Xcc growth in vitro ([2]; peptide 3 µM): did not reduce

Compound: nOct-Aib-Gly-Leu-Aib-Gly-Gly-Leu-Api-Ile-Lol [Peptide 8ApiC]
- Inhibition of Xcc growth in vitro ([2]; peptide 3 µM): did not reduce

Compound: nOct-Aib-Gly-Leu-Aib-Gly-Lys-Leu-Aib-Gly-Ile-Leu-NH2 [Peptide 22r]
- Inhibition of Xcc growth in vitro ([2]; peptide 15 µM): complete inhibition

Compound: nOct-Aib-Gly-Leu-Aib-Lys-Aib-Leu-Aib-Gly-Ile-Leu-NH2 [Peptide 6r]
- Inhibition of Xcc growth in vitro ([2]; peptide 15 µM): weakly effective

Compound: nOct-Aib-Gly-Leu-Aib-Lys-Aib-Leu-Aib-Gly-Ile-Lol [Peptide 6]
- Inhibition of P. oryzae (P. oryzae): strain-dependent inhibition
- Inhibition of Xcc growth in vitro ([2]; peptide 3 µM): partial growth inhibition effect
- Inhibition of Xcc growth in vitro ([2]; peptide 15 µM): completely inhibit

Compound: nOct-Aib-Gly-Leu-Aib-Lys-Gly-Leu-Aib-Gly-Ile-Lol [Peptide 3]
- MIC [1]: neither bacteriostatic nor bactericidal activity
- Bacteriostatic (MIC) / bactericidal (MBC) activity at 0.5 µM [1]: -
- Bacteriostatic (MIC) / bactericidal (MBC) activity at 1 µM [1]: -
- Bacteriostatic (MIC) / bactericidal (MBC) activity at 2 µM [1]: -
- Bacteriostatic (MIC) / bactericidal (MBC) activity at 3 µM [1]: -
- Inhibition of Xcc growth in vitro ([2]; peptide 15 µM): inactive

Compound: nOct-Aib-Gly-Leu-Aib-Lys-Lys-Leu-Aib-Gly-Ile-Lol [Peptide 4]
- Inhibition of Xcc growth in vitro ([2]; peptide 3 µM): did not reduce

Compound: nOct-Aib-Gly-Leu-Aib-Lys-Lys-Leu-Leu-NH2 (nOct-[Aib]GL[Aib]KKLL-NH2; reading uncertain) [Peptide 4c1]
- Inhibition of Xcc growth in vitro ([2]; peptide 15 µM): weakly effective

Compound: nOct-Aib-Lys-Leu-Aib-Gly-Gly-Leu-Aib-Gly-Ile-Leu-NH2 [Peptide 2r]
- Inhibition of Xcc growth in vitro ([2]; peptide 15 µM): complete inhibition

Compound: nOct-Aib-Lys-Leu-Aib-Gly-Lys-Leu-Aib-Gly-Ile-Lol [Peptide 7]
- Inhibition of Xcc growth in vitro ([2]; peptide 3 µM): partial growth inhibition effect
- Inhibition of Xcc growth in vitro ([2]; peptide 15 µM): completely inhibit

Compound: nOct-Aib-Lys-Leu-Aib-Lys-Gly-Leu-Aib-Gly-Ile-Lol [Peptide 1]
- Inhibition of Xcc growth in vitro ([2]; peptide 3 µM): complete inhibition
- Inhibition of Xcc growth in vitro ([2]; peptide 15 µM): completely inhibit

Compound: nOct-Aib-Lys-Leu-Aib-Lys-Gly-Leu-Aib-Lys-Ile-Lol [Peptide 5]
- Inhibition of Xcc growth in vitro ([2]; peptide 3 µM): did not reduce

Compound: nOct-Aib-Lys-Lys-Leu-Aib-Gly-Ile-Leu-NH2 [Peptide 4c2]
- Inhibition of Xcc growth in vitro ([2]; peptide 15 µM): no inhibitory effect

Compound: nOct-Toac-Gly-Leu-Aib-Gly-Gly-Leu-Aib-Arg-Ile-Lol [Peptide 11]
- Inhibition of Xcc growth in vitro ([2]; peptide 3 µM): did not reduce
